Holding throughout (assay): biochemical
Common to all, as to design: KINOMEscan competition binding panel (Eurofins DiscoverX), single concentration, percent inhibition
Details in all cases: read-out: 15 at 1 µM % inhibition

One assay has as its target CSK (Homo sapiens, UniProt P41240). The method, boiled down:
(§1)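 Values come from single-concentration (1 µM) profiling in the Eurofins DiscoverX KINOMEscan competition-binding platform, which covers over 400 kinases.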

The next assay has as its target T1, MEK3 (Homo sapiens, UniProt P46734).
T1 construct: gene MAP2K3
In a few lines:
as §1

In the next assay the target is T2, ABL1-nonphosphorylated (Homo sapiens, UniProt P00519).
T2 construct: nonphosphorylated
In a few lines:
as §1

A further assay concerns the target SYK (Homo sapiens, UniProt P43405). In a few lines: as §1
Another assay deals with CLK3 (Homo sapiens, UniProt P49761). In a few lines: as §1
Chain of CLK3 (P49761 whole entry): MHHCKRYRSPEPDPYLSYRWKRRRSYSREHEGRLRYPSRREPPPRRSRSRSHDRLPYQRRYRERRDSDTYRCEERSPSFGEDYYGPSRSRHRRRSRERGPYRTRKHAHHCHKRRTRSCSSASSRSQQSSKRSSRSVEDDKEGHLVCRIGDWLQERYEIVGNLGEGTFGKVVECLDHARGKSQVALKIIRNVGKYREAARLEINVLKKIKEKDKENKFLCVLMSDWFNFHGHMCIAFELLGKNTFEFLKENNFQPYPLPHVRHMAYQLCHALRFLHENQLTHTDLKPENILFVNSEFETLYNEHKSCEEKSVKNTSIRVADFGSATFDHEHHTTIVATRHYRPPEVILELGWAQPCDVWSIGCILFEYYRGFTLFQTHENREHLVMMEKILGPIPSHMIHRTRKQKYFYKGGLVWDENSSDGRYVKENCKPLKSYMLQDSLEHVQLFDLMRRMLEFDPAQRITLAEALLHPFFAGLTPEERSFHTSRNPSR
The next assay addresses T3, IKK-epsilon (Homo sapiens, UniProt Q14164).
T3 construct: gene IKBKE
In a few lines: as §1

The next assay addresses RIOK3 (Homo sapiens, UniProt O14730). In a few lines:
as §1

Another assay has as its target SIK2 (Homo sapiens, UniProt Q9H0K1). In a few lines: as §1
The next assay has as its target T4, TIE2 (Homo sapiens, UniProt Q02763).
T4 construct: gene TEK
The method, boiled down: as §1

Assay [1] deals with T5, RSK3(Kin.Dom.2-C-terminal) (Homo sapiens, UniProt Q15349).
T5 construct: gene RPS6KA2; Kin.Dom.2-C-terminal
The method, boiled down: as §1

A further assay addresses PDGFRA (Homo sapiens, UniProt P16234). The method, boiled down:
as §1

A further assay addresses ACVR1 (Homo sapiens, UniProt Q04771). The method, boiled down: as §1
The next assay concerns the target LATS1 (Homo sapiens, UniProt O95835). The method, boiled down: as §1
The target in the next assay is T6, ARK5 (Homo sapiens, UniProt O60285).
T6 construct: gene NUAK1
In a few lines:
as §1

In the next assay the target is WEE1 (Homo sapiens, UniProt P30291). The method, boiled down:
as §1

In the next assay the target is FLT3(D835Y) (Homo sapiens, UniProt P36888, D835Y). In a few lines:
as §1

A further assay has as its target FLT3(ITD) (Homo sapiens, UniProt P36888, ITD). In a few lines: as §1
The target in another assay is NEK4 (Homo sapiens, UniProt P51957). In a few lines: as §1
For another assay, the target named is T7, HPK1 (Homo sapiens, UniProt Q92918).
T7 construct: gene MAP4K1
The method, boiled down:
as §1

The target in a further assay is T8, S6K1 (Homo sapiens, UniProt P23443).
T8 construct: gene RPS6KB1
T8 sequence (P23443 whole entry): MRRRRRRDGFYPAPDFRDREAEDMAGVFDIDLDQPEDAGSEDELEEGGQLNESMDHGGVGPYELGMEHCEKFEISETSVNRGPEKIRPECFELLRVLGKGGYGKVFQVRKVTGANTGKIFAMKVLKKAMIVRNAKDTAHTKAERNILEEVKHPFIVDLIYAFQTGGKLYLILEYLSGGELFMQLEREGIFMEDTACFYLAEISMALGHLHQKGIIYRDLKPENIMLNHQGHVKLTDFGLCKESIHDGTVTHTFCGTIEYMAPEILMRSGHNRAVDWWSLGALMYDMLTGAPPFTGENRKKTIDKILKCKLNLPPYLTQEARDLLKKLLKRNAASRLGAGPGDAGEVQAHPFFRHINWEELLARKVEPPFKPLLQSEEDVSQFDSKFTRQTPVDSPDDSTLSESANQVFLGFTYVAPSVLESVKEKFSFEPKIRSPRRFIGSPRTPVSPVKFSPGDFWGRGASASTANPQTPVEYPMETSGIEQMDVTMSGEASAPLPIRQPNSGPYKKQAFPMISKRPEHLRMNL
The method, boiled down:
as §1

The next assay has as its target MAP3K4 (Homo sapiens, UniProt Q9Y6R4). In a few lines: as §1
Another assay addresses AKT2 (Homo sapiens, UniProt P31751). The method, boiled down:
as §1

The target of another assay is CSNK1G3 (Homo sapiens, UniProt Q9Y6M4). The method, boiled down:
as §1

In another assay the target is MKNK1 (Homo sapiens, UniProt Q9BUB5). In a few lines:
as §1

Chain of MKNK1 (Q9BUB5 whole entry): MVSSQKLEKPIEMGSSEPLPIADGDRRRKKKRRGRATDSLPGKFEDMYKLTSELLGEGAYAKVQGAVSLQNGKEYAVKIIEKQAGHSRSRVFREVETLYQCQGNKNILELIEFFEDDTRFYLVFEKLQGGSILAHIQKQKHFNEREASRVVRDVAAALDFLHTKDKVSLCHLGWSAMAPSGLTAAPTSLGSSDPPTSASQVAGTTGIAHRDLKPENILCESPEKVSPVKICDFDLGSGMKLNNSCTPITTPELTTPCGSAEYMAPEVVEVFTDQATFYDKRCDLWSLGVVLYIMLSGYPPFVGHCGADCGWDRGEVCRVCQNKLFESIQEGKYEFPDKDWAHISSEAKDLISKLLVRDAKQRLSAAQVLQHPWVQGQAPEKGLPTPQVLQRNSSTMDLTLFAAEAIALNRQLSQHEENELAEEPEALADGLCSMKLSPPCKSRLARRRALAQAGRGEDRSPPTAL
Chain of MAP3K4 (Q9Y6R4 whole entry): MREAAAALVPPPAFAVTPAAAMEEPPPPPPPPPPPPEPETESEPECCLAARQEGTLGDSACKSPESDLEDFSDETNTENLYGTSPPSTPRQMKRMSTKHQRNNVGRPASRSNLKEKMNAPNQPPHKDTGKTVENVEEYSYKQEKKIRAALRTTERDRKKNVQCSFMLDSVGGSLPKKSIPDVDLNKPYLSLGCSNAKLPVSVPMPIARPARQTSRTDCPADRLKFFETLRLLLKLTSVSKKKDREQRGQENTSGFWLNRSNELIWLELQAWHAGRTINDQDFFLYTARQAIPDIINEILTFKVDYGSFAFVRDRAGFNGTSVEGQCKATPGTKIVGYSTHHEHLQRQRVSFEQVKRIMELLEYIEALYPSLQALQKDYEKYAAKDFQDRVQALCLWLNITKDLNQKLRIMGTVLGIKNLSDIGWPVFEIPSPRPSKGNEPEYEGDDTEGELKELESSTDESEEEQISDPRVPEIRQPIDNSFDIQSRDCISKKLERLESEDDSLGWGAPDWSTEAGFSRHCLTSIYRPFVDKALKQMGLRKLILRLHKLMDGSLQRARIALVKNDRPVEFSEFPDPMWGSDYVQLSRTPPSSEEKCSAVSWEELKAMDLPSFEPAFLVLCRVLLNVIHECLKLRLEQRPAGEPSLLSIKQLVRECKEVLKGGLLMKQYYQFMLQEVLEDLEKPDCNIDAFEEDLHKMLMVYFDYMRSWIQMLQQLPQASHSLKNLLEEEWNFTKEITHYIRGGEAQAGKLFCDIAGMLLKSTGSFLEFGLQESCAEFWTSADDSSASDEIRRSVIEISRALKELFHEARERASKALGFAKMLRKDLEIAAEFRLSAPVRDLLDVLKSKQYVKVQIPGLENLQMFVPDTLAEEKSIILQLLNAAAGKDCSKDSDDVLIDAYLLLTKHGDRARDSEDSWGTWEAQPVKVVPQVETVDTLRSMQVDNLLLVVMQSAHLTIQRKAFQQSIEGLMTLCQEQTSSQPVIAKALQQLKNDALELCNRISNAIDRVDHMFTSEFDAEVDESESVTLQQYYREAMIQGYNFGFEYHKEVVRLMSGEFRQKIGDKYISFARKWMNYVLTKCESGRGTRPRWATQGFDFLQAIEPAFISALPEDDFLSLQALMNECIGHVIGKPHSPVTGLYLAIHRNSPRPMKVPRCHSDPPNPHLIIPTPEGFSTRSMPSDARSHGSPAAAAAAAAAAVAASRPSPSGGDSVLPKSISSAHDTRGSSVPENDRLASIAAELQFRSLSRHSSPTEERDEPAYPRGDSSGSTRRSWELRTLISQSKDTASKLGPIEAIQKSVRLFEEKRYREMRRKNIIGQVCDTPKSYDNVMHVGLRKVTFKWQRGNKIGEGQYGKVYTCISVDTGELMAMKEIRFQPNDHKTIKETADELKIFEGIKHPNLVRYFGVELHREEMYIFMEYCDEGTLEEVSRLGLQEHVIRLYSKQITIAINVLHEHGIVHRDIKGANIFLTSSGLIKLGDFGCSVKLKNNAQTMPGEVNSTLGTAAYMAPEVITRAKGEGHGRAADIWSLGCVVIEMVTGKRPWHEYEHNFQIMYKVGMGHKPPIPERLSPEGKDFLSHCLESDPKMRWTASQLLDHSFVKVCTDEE
T1 sequence (P46734 whole entry): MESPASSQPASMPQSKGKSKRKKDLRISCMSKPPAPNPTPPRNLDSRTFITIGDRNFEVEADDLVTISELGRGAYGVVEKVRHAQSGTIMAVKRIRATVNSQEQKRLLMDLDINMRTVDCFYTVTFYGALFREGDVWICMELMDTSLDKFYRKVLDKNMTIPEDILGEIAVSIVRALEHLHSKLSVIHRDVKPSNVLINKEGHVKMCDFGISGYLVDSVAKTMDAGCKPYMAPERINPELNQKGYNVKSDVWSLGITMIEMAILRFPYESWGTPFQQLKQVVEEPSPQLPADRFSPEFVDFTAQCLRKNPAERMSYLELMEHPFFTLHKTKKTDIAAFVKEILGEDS
Chain of PDGFRA (P16234 whole entry): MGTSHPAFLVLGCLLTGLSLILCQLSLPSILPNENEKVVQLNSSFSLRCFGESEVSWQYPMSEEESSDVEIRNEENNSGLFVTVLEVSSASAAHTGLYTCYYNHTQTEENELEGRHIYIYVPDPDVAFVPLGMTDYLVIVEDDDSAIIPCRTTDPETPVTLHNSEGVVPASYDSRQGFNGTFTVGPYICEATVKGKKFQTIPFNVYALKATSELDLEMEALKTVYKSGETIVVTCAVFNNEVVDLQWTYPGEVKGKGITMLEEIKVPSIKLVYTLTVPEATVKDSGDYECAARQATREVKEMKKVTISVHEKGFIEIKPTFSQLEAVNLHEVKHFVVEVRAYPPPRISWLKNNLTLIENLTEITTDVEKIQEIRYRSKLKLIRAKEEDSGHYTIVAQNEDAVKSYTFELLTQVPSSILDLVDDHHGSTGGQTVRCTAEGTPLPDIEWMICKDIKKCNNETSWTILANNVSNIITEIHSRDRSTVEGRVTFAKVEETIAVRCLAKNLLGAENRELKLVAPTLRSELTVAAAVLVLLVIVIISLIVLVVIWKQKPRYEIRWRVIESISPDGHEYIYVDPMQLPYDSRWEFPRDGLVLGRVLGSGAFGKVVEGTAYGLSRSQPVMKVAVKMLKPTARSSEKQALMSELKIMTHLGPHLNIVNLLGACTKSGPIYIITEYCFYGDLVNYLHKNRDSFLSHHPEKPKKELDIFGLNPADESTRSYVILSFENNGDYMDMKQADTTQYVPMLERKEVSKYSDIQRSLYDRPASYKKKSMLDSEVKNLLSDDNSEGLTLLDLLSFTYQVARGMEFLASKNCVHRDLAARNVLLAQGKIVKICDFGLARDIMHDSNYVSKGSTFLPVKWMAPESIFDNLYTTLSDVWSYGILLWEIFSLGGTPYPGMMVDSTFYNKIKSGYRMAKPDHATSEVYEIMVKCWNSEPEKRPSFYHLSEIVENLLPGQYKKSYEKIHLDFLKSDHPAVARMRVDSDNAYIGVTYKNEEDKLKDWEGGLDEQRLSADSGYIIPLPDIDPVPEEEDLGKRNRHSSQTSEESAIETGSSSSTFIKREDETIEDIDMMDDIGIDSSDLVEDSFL
Chain of RIOK3 (O14730 whole entry): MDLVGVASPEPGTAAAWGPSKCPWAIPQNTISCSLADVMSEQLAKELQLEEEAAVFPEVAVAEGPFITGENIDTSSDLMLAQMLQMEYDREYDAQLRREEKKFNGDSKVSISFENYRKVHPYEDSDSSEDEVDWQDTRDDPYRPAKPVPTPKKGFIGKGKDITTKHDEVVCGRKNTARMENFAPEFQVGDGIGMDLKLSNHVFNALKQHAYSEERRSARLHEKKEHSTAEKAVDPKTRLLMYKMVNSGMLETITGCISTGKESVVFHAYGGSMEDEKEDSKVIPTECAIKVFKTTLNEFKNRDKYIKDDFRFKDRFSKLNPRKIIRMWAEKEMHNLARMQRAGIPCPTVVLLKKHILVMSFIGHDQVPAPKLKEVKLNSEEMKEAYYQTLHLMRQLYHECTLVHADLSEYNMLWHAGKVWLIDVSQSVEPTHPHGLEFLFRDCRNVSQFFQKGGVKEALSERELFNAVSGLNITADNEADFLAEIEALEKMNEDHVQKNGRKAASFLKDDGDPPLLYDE

`CNS(=O)(=O)c1ccc(N(C)C)c(Nc2nc(C)nc3cc(OC)c(OC)cc23)c1` [compound 15, 3-((6,7-dimethoxy-2-methylquinazolin-4-yl)amino)-4-(dimethylamino)-N-methylbenzenesulfonamide]: the inhibition – broadly, the change of the read-out against control, counted positive when it falls – at 1 µM came out at 2% at CSK; 22% on MEK3; 13% at ABL1-nonphosphorylated; 0% at SYK; 0% on CLK3; 0% at IKK-epsilon. The inhibition at 1 µM was 0% at RIOK3; 4% at SIK2; 6% on TIE2; 0% in assay [1]; 10% at PDGFRA; 0% on ACVR1. For the same compound, the inhibition at 1 µM on LATS1 is 14%; on ARK5 it was 0%; on WEE1 it was 7%; at FLT3(D835Y), 4%; at FLT3(ITD), 0%; on NEK4, 13%. Also, the inhibition at 1 µM came out at 0% at HPK1; 20% on S6K1; 0% on MAP3K4; 0% at AKT2; 0% at CSNK1G3; 4% at MKNK1.

These data come from publication PMC7180948, “New Insights into 4-Anilinoquinazolines as Inhibitors of Cardiac Troponin I–Interacting Kinase (TNNi3K)” (Molecules, 2020).
